Data: US6482921B1, “Uridyl peptide antibiotic (UPA) derivatives, their synthesis and use” (Essential Therapeutics, Inc., priority 1999, dated 2002)
Converted amounts (≈) assume the structure as drawn.

What was measured:
[1] = system: Pasteurella multocida pm002; experiment: MIC broth microdilution, P. multocida pm002 (wild type); assay type: cell-based
[2] = system: Staphylococcus aureus 8325-4; experiment: MIC broth microdilution, S. aureus 8325-4 (wild type); assay type: cell-based; conditions: S. aureus 8325-4
[3] = system: Streptococcus pneumoniae ATCC 49619; experiment: MIC broth microdilution, S. pneumoniae ATCC 49619; assay type: cell-based; conditions: ATCC 49619, CAMHB containing 4% lysed horse blood
Experimental: (§1) In a second panel, Table 5, compounds of this invention were tested for their antimicrobial activity against the bacterial strains H. influenzae hf032 and S. pneumoniae ATCC 49629.
(§2) As above, a broth microdilution assay was used but the culture media were varied according to the specific growth requirements of each bacteria according to the recommendations of the NCCLS. For instance, susceptibility testing for H, influenzae was performed using Haemophilus test medium (HTM-Remel, cat. #20-042). For S. pneumoniae, cation adjusted MHB (CAMHB) containing 4% lysed horse blood was used. MICs were determined as described above.

[4] = system: Pseudomonas aeruginosa PAM 1154; experiment: MIC broth microdilution, P. aeruginosa PAM 1154 (OprM::Hg); assay type: cell-based; conditions: P. aeruginosa PAM 1154 OprM::Hg
[5] = system: Staphylococcus aureus ATCC 29213; experiment: MIC broth microdilution, S. aureus ATCC 29213 (wild type); assay type: cell-based; conditions: S. aureus ATCC 29213
[6] = system: Escherichia Coli MC 4100 AcrAB; experiment: MIC broth microdilution, E. coli MC 4100 AcrAB (ΔAcrAB); assay type: cell-based; conditions: E. coli AcrAB
[7] = system: Pseudomonas aeruginosa PAM 1135; experiment: MIC broth microdilution, P. aeruginosa PAM 1135 (high level UPA resistance); assay type: cell-based; conditions: P. aeruginosa PAM 1135 UPA1^r
[8] = system: Escherichia Coli MC 4100 AcrAB UPA3r; experiment: MIC broth microdilution, E. coli MC 4100 AcrAB UPA3r (ΔAcrAB, UPA resistant); assay type: cell-based; conditions: E. coli AcrAB UPA3^r
[9] = system: Mycobacterium tuberculosis TN913; experiment: MIC agar dilution, M. tuberculosis TN913; assay type: cell-based
[10] = system: Pseudomonas aeruginosa PAM 1323; experiment: MIC broth microdilution, P. aeruginosa PAM 1323 (medium level UPA resistance); assay type: cell-based
[11] = system: Escherichia Coli MC 4100; experiment: MIC broth microdilution, E. coli MC 4100 (wild type); assay type: cell-based; conditions: E. coli MC 4100
[12] = system: Mycobacterium tuberculosis H37Rv; experiment: MIC agar dilution, M. tuberculosis H37Rv; assay type: cell-based
[13] = system: Haemophilus influenzae hf032; experiment: MIC broth microdilution, H. influenzae hf032; assay type: cell-based; conditions: strain hf032, Haemophilus test medium
Experimental: as §1, §2

[14] = system: Pseudomonas aeruginosa PAM 1020; experiment: MIC broth microdilution, P. aeruginosa PAM 1020 (wild type); assay type: cell-based; conditions: P. aeruginosa PAM 1020
[15] = biological target: E. coli translocase (Escherichia coli, UniProt P0A6W3)
[16] = system: bacteria; experiment: Antibacterial activity, stated in words; assay type: cell-based

Sequence of E. coli translocase (P0A6W3 whole entry): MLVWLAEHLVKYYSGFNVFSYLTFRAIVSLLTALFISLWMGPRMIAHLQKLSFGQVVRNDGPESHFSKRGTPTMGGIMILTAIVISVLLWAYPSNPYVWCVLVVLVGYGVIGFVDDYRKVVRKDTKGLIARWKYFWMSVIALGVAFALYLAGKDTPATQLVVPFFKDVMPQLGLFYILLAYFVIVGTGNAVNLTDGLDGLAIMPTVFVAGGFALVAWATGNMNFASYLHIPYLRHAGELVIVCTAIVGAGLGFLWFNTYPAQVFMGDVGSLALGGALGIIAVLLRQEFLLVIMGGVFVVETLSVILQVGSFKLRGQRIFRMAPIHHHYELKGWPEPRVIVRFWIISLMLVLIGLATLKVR

Molecule | MIC (μg/ml) Broth microdilution [1] | MIC (μg/ml) Broth microdilution [2] | MIC Broth microdilution S. pneumoniae [3] | MIC (μg/ml) Broth microdilution [4] | MIC (μg/ml) Broth microdilution [5] | MIC (μg/ml) Broth microdilution [6] | MIC (μg/ml) Broth microdilution [7] | MIC (μg/ml) Broth microdilution [8] | MIC TN913 (SENSITIVE) [9] | MIC (μg/ml) Broth microdilution [10] | MIC (μg/ml) Broth microdilution [11] | MIC H37RV (SENSITIVE) [12] | MIC Broth microdilution H. influenzae [13] | MIC (μg/ml) Broth microdilution [14] | inhibition of E. coli translocase (in words) [15] | antibacterial / biological activity (in words) [16] | inhibition of translocase I (in words) ([15]; species of enzyme not given)
CSCCC(NC(=O)NC(Cc1ccc(O)cc1)C(=O)O)C(=O)NC(C(=O)NCC1CC(O)C(n2ccc(=O)[nH]c2=O)O1)C(C)N(C)C(=O)C(C)N [Compound 115, 1-[5′[(2S,3S)-N^3-L-Alanyl-N^2-[N-[[(1S)-1-carboxy-4-hydroxyphenethyl)-carbamoyl]-L-methionyl]-N^3-methyl-2,3-diaminobutyramido]-3′,5′-dideoxy-α-L-arabinofuranosyl]uracil] | 128 µg/mL (≈ 170 µM) | >512 µg/mL | >512 µg/mL | 2 µg/mL (≈ 2.66 µM) | >512 µg/mL | 8 µg/mL (≈ 10.7 µM) | >512 µg/mL | 32 µg/mL (≈ 42.6 µM) | >30 µg/mL | 256 µg/mL (≈ 341 µM) | >512 µg/mL | >30 µg/mL | 16 µg/mL (≈ 21.3 µM) | 4 µg/mL (≈ 5.33 µM) |  |  | 
Dihydropacidamycin D [Compound 3] |  | 256 µg/mL |  | 8 µg/mL | 512 µg/mL | 2 µg/mL | >512 µg/mL | 32 µg/mL |  |  | 128 µg/mL |  |  | 16 µg/mL | inhibitor of E. coli translocase | displayed the antibacterial spectrum of pacidamycin D | 
Tetrahydropacidamycin D [Compound 4] |  | >512 µg/mL |  | 4 µg/mL | >512 µg/mL | 2 µg/mL | 512 µg/mL | 64 µg/mL |  |  | 256 µg/mL |  |  | 8 µg/mL |  | exhibited antibacterial activity | inhibited translocase I
